Measured values reported in the NIST ThermoML archive (doi:10.1016/j.fluid.2014.03.003).
Numbers after ± are expanded uncertainties.

Conditions: Liquid, Closed cell (Static) method

SMILES | vapor or sublimation pressure (303.15 K) [kPa] | vapor or sublimation pressure (308.15 K) [kPa] | vapor or sublimation pressure (313.15 K) [kPa] | vapor or sublimation pressure (318.15 K) [kPa] | vapor or sublimation pressure (323.15 K) [kPa] | vapor or sublimation pressure (328.15 K) [kPa] | vapor or sublimation pressure (333.15 K) [kPa] | vapor or sublimation pressure (338.15 K) [kPa] | vapor or sublimation pressure (343.15 K) [kPa] | vapor or sublimation pressure (348.15 K) [kPa] | vapor or sublimation pressure (353.15 K) [kPa] | vapor or sublimation pressure (358.15 K) [kPa] | vapor or sublimation pressure (363.15 K) [kPa] | vapor or sublimation pressure (373.15 K) [kPa] | vapor or sublimation pressure (383.15 K) [kPa] | vapor or sublimation pressure (393.15 K) [kPa] | vapor or sublimation pressure (403.15 K) [kPa] | vapor or sublimation pressure (368.15 K) [kPa] | vapor or sublimation pressure (378.15 K) [kPa] | other results
c1ccccc1 [benzene] | 15.85 ± 0.035 | 19.71 ± 0.05 | 24.3 ± 0.052 | 29.73 ± 0.063 | 36.09 ± 0.069 | 43.51 ± 0.082 | 52.11 ± 0.11 | 62.01 ± 0.11 | 73.35 ± 0.13 | 86.27 ± 0.15 | 100.91 ± 0.17 |  |  |  |  |  |  |  |  | vapor or sublimation pressure (293.15 K): 9.983 ± 0.027 kPa; vapor or sublimation pressure (298.15 K): 12.64 ± 0.037 kPa
Cc1ccc(C)cc1 [1,4-dimethylbenzene] | 1.562 ± 0.031 |  | 2.49 ± 0.039 |  | 4.422 ± 0.042 |  | 6.997 ± 0.048 |  | 10.63 ± 0.057 |  | 15.72 ± 0.085 | 19.04 ± 0.085 | 22.8 ± 0.091 | 32.04 ± 0.12 | 44.56 ± 0.16 | 60.79 ± 0.22 | 80.87 ± 0.28 |  |  | vapor or sublimation pressure (408.15 K): 92.43 ± 0.32 kPa
CCc1ccccc1 [ethylbenzene] |  | 2.223 ± 0.019 |  | 3.746 ± 0.041 | 4.712 ± 0.029 | 5.967 ± 0.03 | 7.448 ± 0.031 | 9.251 ± 0.028 | 11.41 ± 0.032 | 13.79 ± 0.04 |  | 20.42 ± 0.06 |  |  | 47.75 ± 0.1 |  | 85.64 ± 0.17 | 29.11 ± 0.073 |  | 
Cc1ccccc1 [toluene] | 4.905 ± 0.022 | 6.257 ± 0.024 | 7.963 ± 0.026 | 9.959 ± 0.034 | 12.31 ± 0.032 | 15.14 ± 0.041 | 18.86 ± 0.057 | 22.61 ± 0.05 | 27.31 ± 0.059 | 32.72 ± 0.071 |  | 46.17 ± 0.091 |  |  |  |  |  | 63.84 ± 0.12 | 86.25 ± 0.16 | 
Cc1cccc(C)c1 [1,3-dimethylbenzene] |  | 2.631 ± 0.045 | 3.524 ± 0.028 | 4.372 ± 0.036 | 5.37 ± 0.045 | 6.496 ± 0.037 | 7.75 ± 0.038 | 9.305 ± 0.035 | 11.12 ± 0.036 |  | 15.97 ± 0.048 |  | 22.76 ± 0.058 | 32.06 ± 0.079 | 44.23 ± 0.11 |  | 80.2 ± 0.16 |  |  | 
Cc1ccccc1C [1,2-dimethylbenzene] |  |  | 2.052 ± 0.035 |  | 3.456 ± 0.022 |  | 5.613 ± 0.047 |  | 8.542 ± 0.051 |  | 12.73 ± 0.04 |  | 18.65 ± 0.057 | 26.73 ± 0.076 | 37.35 ± 0.1 | 51.01 ± 0.14 | 68.42 ± 0.18 |  | 31.66 ± 0.091 | vapor or sublimation pressure (388.15 K): 43.63 ± 0.12 kPa; vapor or sublimation pressure (413.15 K): 90.18 ± 0.24 kPa
